Laboratory results as given in publication PMC6978363, “Chaperone mediated detection of small molecule target binding in cells” (Nature Communications, 2020).

What was measured:
Test in all cases: biochemical
Settings in all cases: read-out: % Inhibition (at 10mM)
EphA4 = EphA4 (Homo sapiens, UniProt P54764)
PKC_theta = target: T1, PKC_theta (Homo sapiens, UniProt Q04759)
T1 construct: gene PRKCQ

EphB1 = EphB1 (Homo sapiens, UniProt P54762)
MST1 = target: T2, MST1 (Homo sapiens, UniProt Q13043)
T2 construct: gene STK4

Hyl = target: T3, Hyl (Homo sapiens, UniProt P42679)
T3 construct: gene MATK

DYRK4 = DYRK4 (Homo sapiens, UniProt Q9NR20)
EphA2 = EphA2 (Homo sapiens, UniProt P29317)
PKA = target: T4, PKA (Homo sapiens, UniProt P17612)
T4 construct: gene PRKACA

Fyn = Fyn (Homo sapiens, UniProt P06241)
ERK1 = target: T5, ERK1 (Homo sapiens, UniProt P27361)
T5 construct: gene MAPK3

GCK = target: T6, GCK (Homo sapiens, UniProt Q12851)
T6 construct: gene MAP4K2
T6 sequence (Q12851 whole entry): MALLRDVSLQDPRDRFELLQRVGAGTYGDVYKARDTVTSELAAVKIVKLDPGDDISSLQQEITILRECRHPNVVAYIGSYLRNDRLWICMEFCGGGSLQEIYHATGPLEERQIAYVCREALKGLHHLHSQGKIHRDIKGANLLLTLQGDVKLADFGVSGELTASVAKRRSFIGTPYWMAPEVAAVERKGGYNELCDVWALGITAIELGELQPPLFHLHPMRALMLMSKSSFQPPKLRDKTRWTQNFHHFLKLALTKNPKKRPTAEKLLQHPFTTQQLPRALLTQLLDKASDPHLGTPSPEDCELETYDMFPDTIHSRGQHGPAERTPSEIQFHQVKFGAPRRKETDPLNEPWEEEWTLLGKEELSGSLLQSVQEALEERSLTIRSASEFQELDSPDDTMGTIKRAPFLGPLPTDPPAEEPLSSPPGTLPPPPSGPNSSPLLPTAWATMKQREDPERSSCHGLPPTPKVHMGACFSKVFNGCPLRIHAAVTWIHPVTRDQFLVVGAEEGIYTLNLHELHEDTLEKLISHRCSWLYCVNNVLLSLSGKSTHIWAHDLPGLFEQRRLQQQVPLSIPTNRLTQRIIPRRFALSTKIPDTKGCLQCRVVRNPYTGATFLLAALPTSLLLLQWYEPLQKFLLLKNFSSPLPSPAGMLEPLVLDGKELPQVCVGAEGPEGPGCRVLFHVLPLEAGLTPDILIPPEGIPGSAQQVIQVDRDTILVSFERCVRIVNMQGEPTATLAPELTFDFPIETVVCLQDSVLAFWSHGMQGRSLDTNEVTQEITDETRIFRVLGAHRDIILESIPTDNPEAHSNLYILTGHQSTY

p38_gamma = target: T7, p38_gamma (Homo sapiens, UniProt P53778)
T7 construct: gene MAPK12
T7 sequence (P53778 whole entry): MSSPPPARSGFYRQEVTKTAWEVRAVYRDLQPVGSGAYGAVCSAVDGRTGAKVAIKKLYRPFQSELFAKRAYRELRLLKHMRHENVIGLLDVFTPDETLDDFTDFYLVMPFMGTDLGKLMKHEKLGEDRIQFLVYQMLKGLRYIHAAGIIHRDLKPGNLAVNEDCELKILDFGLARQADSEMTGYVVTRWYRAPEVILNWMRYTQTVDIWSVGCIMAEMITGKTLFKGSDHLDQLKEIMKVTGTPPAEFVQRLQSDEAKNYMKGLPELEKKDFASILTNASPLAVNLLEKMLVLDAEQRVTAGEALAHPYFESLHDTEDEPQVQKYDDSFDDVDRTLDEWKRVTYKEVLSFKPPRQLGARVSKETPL

Kit = Kit (Homo sapiens, UniProt P10721)
Kit, sequence (P10721 whole entry): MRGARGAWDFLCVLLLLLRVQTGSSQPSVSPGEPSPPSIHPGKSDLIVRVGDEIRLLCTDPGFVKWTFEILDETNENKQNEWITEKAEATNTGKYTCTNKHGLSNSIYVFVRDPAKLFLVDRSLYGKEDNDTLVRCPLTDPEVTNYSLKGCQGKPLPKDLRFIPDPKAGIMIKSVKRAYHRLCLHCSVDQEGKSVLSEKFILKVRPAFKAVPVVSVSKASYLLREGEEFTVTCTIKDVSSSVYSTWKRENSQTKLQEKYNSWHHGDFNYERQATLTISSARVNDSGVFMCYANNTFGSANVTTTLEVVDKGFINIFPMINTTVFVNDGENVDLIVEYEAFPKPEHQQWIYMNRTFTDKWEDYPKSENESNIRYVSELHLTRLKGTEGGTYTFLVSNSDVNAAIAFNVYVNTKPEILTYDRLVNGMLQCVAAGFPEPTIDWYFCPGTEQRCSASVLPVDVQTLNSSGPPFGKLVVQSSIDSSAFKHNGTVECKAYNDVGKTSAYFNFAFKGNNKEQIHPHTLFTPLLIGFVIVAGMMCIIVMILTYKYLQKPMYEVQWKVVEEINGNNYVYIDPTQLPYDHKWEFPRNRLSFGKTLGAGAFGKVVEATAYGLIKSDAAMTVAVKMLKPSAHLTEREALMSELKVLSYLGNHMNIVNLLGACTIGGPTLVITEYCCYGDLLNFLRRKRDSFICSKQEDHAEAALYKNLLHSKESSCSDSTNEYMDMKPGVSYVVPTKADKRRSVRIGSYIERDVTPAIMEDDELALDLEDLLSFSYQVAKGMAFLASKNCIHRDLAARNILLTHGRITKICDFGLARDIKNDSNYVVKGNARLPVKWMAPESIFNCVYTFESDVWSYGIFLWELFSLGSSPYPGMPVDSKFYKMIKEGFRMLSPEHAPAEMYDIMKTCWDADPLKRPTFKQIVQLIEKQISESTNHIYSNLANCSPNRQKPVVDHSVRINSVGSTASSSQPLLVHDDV

Yes = target: T8, Yes (Homo sapiens, UniProt P07947)
T8 construct: gene YES1

CamKIV = target: T9, CamKIV (Homo sapiens, UniProt Q16566)
T9 construct: gene CAMK4

PLK2 = PLK2 (Homo sapiens, UniProt Q9NYY3)
HIPK2 = HIPK2 (Homo sapiens, UniProt Q9H2X6)
CHK2 = target: T10, CHK2 (Homo sapiens, UniProt O96017)
T10 construct: gene CHEK2

PCTK2 = target: T11, PCTK2 (Homo sapiens, UniProt Q00537)
T11 construct: gene CDK17

AKT1 = AKT1 (Homo sapiens, UniProt P31749)
CK1_epsilon1 = target: T12, CK1_epsilon1 (Homo sapiens, UniProt P49674)
T12 construct: gene CSNK1E; epsilon 1
T12 sequence (P49674 whole entry): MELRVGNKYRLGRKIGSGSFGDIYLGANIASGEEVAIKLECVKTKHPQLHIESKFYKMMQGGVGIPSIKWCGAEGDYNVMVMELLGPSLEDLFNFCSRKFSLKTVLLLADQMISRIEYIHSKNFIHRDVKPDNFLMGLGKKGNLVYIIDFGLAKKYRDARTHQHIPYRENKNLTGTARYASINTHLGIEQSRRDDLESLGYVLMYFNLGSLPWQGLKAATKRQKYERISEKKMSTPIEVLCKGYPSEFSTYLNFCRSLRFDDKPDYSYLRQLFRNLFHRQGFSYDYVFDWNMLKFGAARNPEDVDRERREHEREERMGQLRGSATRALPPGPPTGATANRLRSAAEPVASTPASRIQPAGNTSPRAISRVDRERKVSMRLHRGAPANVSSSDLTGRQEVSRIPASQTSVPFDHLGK

MAPKAPK3 = MAPKAPK3 (Homo sapiens, UniProt Q16644)
IKK_beta = target: T13, IKK_beta (Homo sapiens, UniProt O14920)
T13 construct: gene IKBKB

PKD2 = target: T14, PKD2 (Homo sapiens, UniProt Q9BZL6)
T14 construct: gene PRKD2

JAK2 = JAK2 (Homo sapiens, UniProt O60674)
ALK = ALK (Homo sapiens, UniProt Q9UM73)
IRAK4 = IRAK4 (Homo sapiens, UniProt Q9NWZ3)
PKC_epsilon = target: T15, PKC_epsilon (Homo sapiens, UniProt Q02156)
T15 construct: gene PRKCE
T15 sequence (Q02156 whole entry): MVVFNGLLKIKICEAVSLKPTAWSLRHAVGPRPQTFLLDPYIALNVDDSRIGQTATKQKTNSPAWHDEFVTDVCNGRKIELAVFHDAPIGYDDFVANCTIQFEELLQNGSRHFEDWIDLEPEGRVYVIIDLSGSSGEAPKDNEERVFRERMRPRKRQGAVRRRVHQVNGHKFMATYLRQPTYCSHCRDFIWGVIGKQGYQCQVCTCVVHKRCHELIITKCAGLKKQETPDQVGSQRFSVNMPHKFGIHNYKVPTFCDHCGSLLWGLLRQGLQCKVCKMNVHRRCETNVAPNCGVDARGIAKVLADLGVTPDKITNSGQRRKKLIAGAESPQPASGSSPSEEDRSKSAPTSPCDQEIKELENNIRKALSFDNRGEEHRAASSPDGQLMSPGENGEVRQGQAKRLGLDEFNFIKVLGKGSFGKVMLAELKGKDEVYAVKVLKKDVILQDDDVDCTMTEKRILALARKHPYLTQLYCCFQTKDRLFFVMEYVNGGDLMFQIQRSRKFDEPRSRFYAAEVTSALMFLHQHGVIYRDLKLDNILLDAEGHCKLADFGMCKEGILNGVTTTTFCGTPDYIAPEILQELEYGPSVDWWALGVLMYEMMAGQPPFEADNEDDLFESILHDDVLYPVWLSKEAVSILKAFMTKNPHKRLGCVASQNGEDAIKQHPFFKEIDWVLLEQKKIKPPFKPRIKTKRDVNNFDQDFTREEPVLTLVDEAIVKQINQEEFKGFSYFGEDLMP

ZAP-70 = target: T16, ZAP-70 (Homo sapiens, UniProt P43403)
T16 construct: gene ZAP70

Aurora_B = target: T17, Aurora_B (Homo sapiens, UniProt Q96GD4)
T17 construct: gene AURKB

TrkB = target: T18, TrkB (Homo sapiens, UniProt Q16620)
T18 construct: gene NTRK2
T18 sequence (Q16620 whole entry): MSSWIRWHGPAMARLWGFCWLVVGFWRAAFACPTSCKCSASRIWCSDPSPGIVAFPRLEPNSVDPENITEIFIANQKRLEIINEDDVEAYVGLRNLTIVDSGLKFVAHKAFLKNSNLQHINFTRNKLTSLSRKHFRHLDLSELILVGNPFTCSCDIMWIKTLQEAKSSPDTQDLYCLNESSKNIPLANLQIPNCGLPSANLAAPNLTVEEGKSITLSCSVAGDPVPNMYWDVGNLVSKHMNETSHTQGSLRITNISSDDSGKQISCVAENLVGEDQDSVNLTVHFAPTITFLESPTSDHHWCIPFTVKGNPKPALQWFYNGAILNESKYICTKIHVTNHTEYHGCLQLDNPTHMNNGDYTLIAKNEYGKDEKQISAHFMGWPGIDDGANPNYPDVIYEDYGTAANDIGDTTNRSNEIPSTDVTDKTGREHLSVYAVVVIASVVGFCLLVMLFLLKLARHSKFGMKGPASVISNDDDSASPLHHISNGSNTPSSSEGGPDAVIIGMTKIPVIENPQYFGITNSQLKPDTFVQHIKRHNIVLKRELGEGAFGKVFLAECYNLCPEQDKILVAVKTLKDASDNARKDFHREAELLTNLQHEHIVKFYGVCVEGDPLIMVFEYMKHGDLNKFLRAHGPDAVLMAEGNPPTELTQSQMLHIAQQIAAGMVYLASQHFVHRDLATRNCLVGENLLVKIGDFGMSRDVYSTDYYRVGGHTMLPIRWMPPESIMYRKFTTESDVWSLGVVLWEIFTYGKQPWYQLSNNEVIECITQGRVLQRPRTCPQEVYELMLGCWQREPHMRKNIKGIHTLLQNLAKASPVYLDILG

SRPK1 = SRPK1 (Homo sapiens, UniProt Q96SB4)
DMPK2 = target: T19, DMPK2 (Homo sapiens, UniProt Q6DT37)
T19 construct: gene CDC42BPG

MYLK2(skMLCK) = MYLK2(skMLCK) (Homo sapiens, UniProt Q9H1R3)
MST2 = target: T20, MST2 (Homo sapiens, UniProt Q13188)
T20 construct: gene STK3

PRKAA2 = PRKAA2 (Homo sapiens, UniProt P54646)
PEAK1 = PEAK1 (Homo sapiens, UniProt Q9H792)
NEK9 = NEK9 (Homo sapiens, UniProt Q8TD19)

T1 sequence (Q04759 whole entry): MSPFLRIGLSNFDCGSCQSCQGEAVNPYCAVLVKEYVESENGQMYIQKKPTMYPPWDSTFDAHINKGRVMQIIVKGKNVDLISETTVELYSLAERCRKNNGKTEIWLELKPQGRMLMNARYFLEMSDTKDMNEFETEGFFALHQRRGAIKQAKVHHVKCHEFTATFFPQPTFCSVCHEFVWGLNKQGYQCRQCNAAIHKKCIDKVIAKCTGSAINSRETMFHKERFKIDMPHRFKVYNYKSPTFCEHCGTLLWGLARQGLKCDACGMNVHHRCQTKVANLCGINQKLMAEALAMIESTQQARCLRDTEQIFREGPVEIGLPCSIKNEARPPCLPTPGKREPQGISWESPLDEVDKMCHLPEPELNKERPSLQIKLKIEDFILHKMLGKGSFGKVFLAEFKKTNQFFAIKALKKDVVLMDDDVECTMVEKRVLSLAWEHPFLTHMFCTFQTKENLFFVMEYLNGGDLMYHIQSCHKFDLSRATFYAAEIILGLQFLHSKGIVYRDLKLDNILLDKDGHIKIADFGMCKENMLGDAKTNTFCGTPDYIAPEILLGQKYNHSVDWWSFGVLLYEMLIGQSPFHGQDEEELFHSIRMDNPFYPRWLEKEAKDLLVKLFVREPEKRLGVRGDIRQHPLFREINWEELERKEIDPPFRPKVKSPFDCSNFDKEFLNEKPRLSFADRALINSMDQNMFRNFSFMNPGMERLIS

`CC(C)(O)CC(=O)NCCn1ccc2ncnc(Nc3ccc(Oc4cccc(C(F)(F)F)c4)c(Cl)c3)c21` [TAK-285] was tested, and the inhibition (EphA4) was 9%, the inhibition (PKC_theta) was 12% and the inhibition (EphB1) was -6%. The inhibition (MST1) was 2%, the inhibition (Hyl) was -2.5% and the inhibition (DYRK4) was 1.5%. For the same compound, the inhibition (EphA2) was 7.5%, the inhibition (PKA) was 2.5% and the inhibition (Fyn) was 53%. The inhibition (ERK1) was 3%, the inhibition (GCK) was 6.5% and the inhibition (p38_gamma) was 12.5%. It also gave an inhibition (Kit) of -1.5%, an inhibition (Yes) of 83% and an inhibition (CamKIV) of 6.5%. It also gave an inhibition (PLK2) of 2.5%, an inhibition (HIPK2) of 6% and an inhibition (CHK2) of 20%. For the same compound, the inhibition (PCTK2) was 0.5%, the inhibition (AKT1) was 1.5% and the inhibition (CK1_epsilon1) was 10.5%. It also gave an inhibition (MAPKAPK3) of 14.5%, an inhibition (IKK_beta) of -0.5% and an inhibition (PKD2) of 80.5%. It also gave an inhibition (JAK2) of 2%, an inhibition (ALK) of 8.5% and an inhibition (IRAK4) of 6%. It also gave an inhibition (PKC_epsilon) of 16%, an inhibition (ZAP-70) of 2% and an inhibition (Aurora_B) of 68%. The inhibition (TrkB) was 4.5%, the inhibition (SRPK1) was 10.5% and the inhibition (DMPK2) was 2%. The inhibition (MYLK2(skMLCK)) was -3%, the inhibition (MST2) was 6% and the inhibition (PRKAA2) was 10.5%. It also gave an inhibition (PEAK1) of 11% and an inhibition (NEK9) of 0%.
